# Activity calls are given as the source filed them. The rule behind the calls is not given here. Numbered stars: 1 amine (or outer) side, 2 acyl side, 3 side chain; on linkers, the order of the positions; unused ones are H or OH. Bridge positions count the residues as written; N and C are the ends. Square brackets hold non-standard residues; d marks the D form. Peptide text beside a SMILES is read from it. I, II: the chains in the order shown. X1 = O=C1CC([*:2])C(=O)N1CCCCCC(=O)[*:1]; Dab = NCC[C@H](N)C(=O)O
# Key:
# Staphylococcus aureus [1] = test: Inhibition of biofilm formation in Staphylococcus aureus at 0.78 to 1.56 uM incubated for 24 hrs by crystal violet staining based analysis; type: functional, organism-based; conditions: dose 0.78-1.56 µM
# [2] = test system: Staphylococcus saprophyticus; test: Bactericidal activity against Staphylococcus saprophyticus ATCC BAA-750 assessed as inhibition of bacterial growth incubated for 18 to 24 hrs; type: functional; conditions: time 18-24 hrs
# [3] = Toxicity in Kunming mouse infected with Staphylococcus aureus ATCC 6538p assessed as weight loss 15 to 45 mg/kg, ip pre-infected with bacteria for 1 hr followed by compound administration and measured after 3 days; type: organism-based; conditions: in vivo, 72 h, dose 15-45 mg/kg, time 3 day
# [4] = Inhibition of quorum sensing system in Staphylococcus epidermidis ATCC 12228 assessed as downregulation of RNAIII expression level at 0.78 uM incubated for 24 hrs by qRT-PCR analysis
# Staphylococcus aureus [5] = test: Antibacterial activity against Staphylococcus aureus ATCC 6538p assessed as inhibition of bacterial growth incubated for 18 to 24 hrs; type: functional; conditions: time 18-24 hrs
# Staphylococcus aureus [6] = test: Bactericidal activity against Staphylococcus aureus ATCC 43300 assessed as inhibition of bacterial growth incubated for 18 to 24 hrs; type: functional; conditions: time 18-24 hrs
# Homo sapiens [7] = species on record: Homo sapiens; test: Binding affinity to AgrC-I extra-loop-III (unknown origin) assessed as change in entropy incubated for 10 mins by isothermal titration calorimetry analysis
# Erythrocyte = test: Hemolytic activity in rat RBC assessed as hemolysis measured after 20 hrs; type: toxicity, cell-based
# [8] = Inhibition of quorum sensing system in Staphylococcus aureus ATCC 6538p assessed as downregulation of RNAIII expression level at 0.78 uM incubated for 24 hrs by qRT-PCR analysis
# [9] = Toxicity in Kunming mouse infected with Staphylococcus aureus ATCC 6538p assessed as animal survival rate 15 mg/kg, ip pre-infected with bacteria for 1 hr followed by compound administration and measured after 7 days; type: organism-based; conditions: in vivo, 168 h, time 7 day
# Streptococcus mutans [10] = test: Bactericidal activity against Streptococcus mutans UA159 assessed as inhibition of bacterial growth incubated for 18 to 24 hrs; type: functional; conditions: time 18-24 hrs
# Staphylococcus aureus [11] = test: Inhibition of biofilm formation in Staphylococcus aureus at 0.39 uM incubated for 24 hrs by crystal violet staining based analysis; type: functional, organism-based
# [12] = Toxicity in Kunming mouse infected with Staphylococcus aureus ATCC 6538p assessed as body weight gain 15 to 45 mg/kg, ip pre-infected with bacteria for 1 hr followed by compound administration and measured after 5 days; type: organism-based; conditions: in vivo, 120 h, dose 15-45 mg/kg, time 5 day
# Homo sapiens [13] = species on record: Homo sapiens; test: Binding affinity to AgrC-I extra-loop-III (unknown origin) assessed as gibbs free energy change incubated for 10 mins by isothermal titration calorimetry analysis
# Staphylococcus aureus [14] = test: Antivirulence activity against Staphylococcus aureus assessed as downregulation of hla expression level at 1 to 100 uM incubated for 24 hrs by qRT-PCR analysis; type: functional, organism-based; conditions: dose 1-100 µM
# [15] = test system: Staphylococcus saprophyticus; test: Antibacterial activity against Staphylococcus saprophyticus assessed as reduction in bacterial growth at 6.25 uM measured at 20 mins by time kill assay; type: functional, organism-based
# Staphylococcus aureus [16] = test: Bactericidal activity against Staphylococcus aureus ATCC 12600 assessed as inhibition of bacterial growth incubated for 18 to 24 hrs; type: functional; conditions: time 18-24 hrs
# Escherichia coli [17] = test: Bactericidal activity against Escherichia coli ATCC 25922 assessed as inhibition of bacterial growth incubated for 18 to 24 hrs; type: functional; conditions: time 18-24 hrs
# Streptococcus pneumoniae [18] = test: Antibacterial activity against Streptococcus pneumoniae ATCC 49619 assessed as inhibition of bacterial growth incubated for 18 to 24 hrs; type: functional; conditions: time 18-24 hrs
# Streptococcus pneumoniae [19] = test: Antibacterial activity against Streptococcus pneumoniae assessed as reduction in bacterial growth at 6.25 uM measured at 20 mins by time kill assay; type: functional, organism-based
# [20] = test system: Staphylococcus saprophyticus; test: Antibacterial activity against Staphylococcus saprophyticus ATCC BAA-750 assessed as inhibition of bacterial growth incubated for 18 to 24 hrs; type: functional; conditions: time 18-24 hrs
# [21] = test system: Staphylococcus epidermidis; test: Antibacterial activity against Staphylococcus epidermidis assessed as reduction in bacterial growth at 6.25 uM measured at 20 mins by time kill assay; type: functional, organism-based
# Homo sapiens [22] = species on record: Homo sapiens; test: Binding affinity to AgrC-I extra-loop-II (unknown origin) assessed as gibbs free energy change incubated for 10 mins by isothermal titration calorimetry analysis
# Staphylococcus aureus [23] = test: Antivirulence activity against Staphylococcus aureus assessed as downregulation of psm-alpha expression level at 1 to 100 uM incubated for 24 hrs by qRT-PCR analysis; type: functional, organism-based; conditions: dose 1-100 µM
# [24] = Binding affinity to AgrC-I extra-loop-III (unknown origin) assessed as dissociation constant incubated for 10 mins by isothermal titration calorimetry analysis
# Homo sapiens [25] = species on record: Homo sapiens; test: Binding affinity to AgrC-I extra-loop-II (unknown origin) assessed as change in entropy incubated for 10 mins by isothermal titration calorimetry analysis
# Homo sapiens [26] = species on record: Homo sapiens; test: Binding affinity to AgrC-I extra-loop-I (unknown origin) assessed as gibbs free energy change incubated for 10 mins by isothermal titration calorimetry analysis
# Staphylococcus aureus [27] = test: Bactericidal activity against Staphylococcus aureus ATCC 6538p assessed as inhibition of bacterial growth incubated for 18 to 24 hrs; type: functional; conditions: time 18-24 hrs
# Staphylococcus aureus [28] = test: Antibacterial activity against Staphylococcus aureus ATCC 12600 assessed as inhibition of bacterial growth incubated for 18 to 24 hrs; type: functional; conditions: time 18-24 hrs
# [29] = Binding affinity to AgrC-I extra-loop-II (unknown origin) assessed as change in enthalpy incubated for 10 mins by isothermal titration calorimetry analysis
# Staphylococcus aureus [30] = test: Antivirulence activity against Staphylococcus aureus ATCC 6538p assessed as downregulation of RNAIII expression level at 2.5 uM measured for 28 passages by qRT-PCR analysis; type: functional, organism-based
# Staphylococcus aureus [31] = test: Inhibition of biofilm formation in Staphylococcus aureus incubated for 24 hrs by crystal violet staining based microscopic analysis; type: functional, organism-based
# [32] = Binding affinity to AgrC-I extra-loop-II (unknown origin) assessed as dissociation constant incubated for 10 mins by isothermal titration calorimetry analysis
# [33] = Inhibition of quorum sensing system in Staphylococcus saprophyticus ATCC BAA-750 assessed as downregulation of RNAIII expression level at 0.78 uM incubated for 24 hrs by qRT-PCR analysis
# [34] = Toxicity in Kunming mouse infected with Staphylococcus aureus ATCC 6538p assessed as animal survival rate 45 mg/kg, ip pre-infected with bacteria for 1 hr followed by compound administration and measured after 7 days; type: organism-based; conditions: in vivo, 168 h, time 7 day
# Staphylococcus aureus [35] = test: Antibacterial activity against Staphylococcus aureus assessed as reduction in bacterial growth at 6.25 uM measured at 20 mins by time kill assay; type: functional, organism-based
# [36] = test system: Staphylococcus epidermidis; test: Antibacterial activity against Staphylococcus epidermidis ATCC 12228 assessed as inhibition of bacterial growth incubated for 18 to 24 hrs; type: functional; conditions: time 18-24 hrs
# Escherichia coli [37] = test: Antibacterial activity against Escherichia coli ATCC 25922 assessed as inhibition of bacterial growth incubated for 18 to 24 hrs; type: functional; conditions: time 18-24 hrs
# Streptococcus mutans [38] = test: Bactericidal activity against Streptococcus mutans ATCC 25175 assessed as inhibition of bacterial growth incubated for 18 to 24 hrs; type: functional; conditions: time 18-24 hrs
# RAW264.7 = test: Cytotoxicity against mouse RAW264.7 cells assessed as cell viability incubated for 48 hrs by MTT assay; type: functional
# [39] = test system: Staphylococcus epidermidis; test: Bactericidal activity against Staphylococcus epidermidis ATCC 12228 assessed as inhibition of bacterial growth incubated for 18 to 24 hrs; type: functional; conditions: time 18-24 hrs
compound,measurement,setting,value
CC[C@H](C)[C@H](NC(=O)CNC(=O)CNC(=O)[C@@H](N)CSC1CC(=O)N(CCCCCC(=O)NCC(=O)N[C@H](C(=O)N[C@@H](CCCCN)C(=O)N[C@@H](CC(N)=O)C(=O)N[C@@H](CC(C)C)C(=O)N[C@@H](Cc2c[nH]c3ccccc23)C(=O)N[C@@H](CCCCN)C(=O)N[C@@H](CCCCN)C(=O)N[C@@H](CCSC)C(=O)N[C@H](C(=O)N[C@@H](CCCCN)C(=O)N[C@@H](CC(C)C)C(=O)N[C@@H](Cc2c[nH]c3ccccc23)C(=O)N[C@@H](Cc2ccc(O)cc2)C(=O)O)[C@@H](C)CC)[C@@H](C)CC)C1=O)C(=O)N[C@@H](CC(N)=O)C(=O)N[C@H]1CCNC(=O)[C@H](CC(C)C)NC(=O)[C@H](CC(C)C)NC(=O)[C@H](Cc2ccccc2)NC(=O)[C@H](C)NC1=O (stereo partly specified) (I: GIKNLWKKMIKLWY-OH / II: H-CGGIN[Dab]AFLL; linker I:N-II:1 via X1; lactam II:6-II:C),inhibition,Staphylococcus aureus [1],Active
same,MBC,[2],3.13 µM
same,Activity,[3],Non-Toxic
same,inhibition,[4],inactive
same,MIC,Staphylococcus aureus [5],3.13 µM
same,MBC,Staphylococcus aureus [6],6.25 µM
same,-TdeltaS,Homo sapiens [7],-16.3 kcal/mol
same,Activity,Erythrocyte,Toxic
same,inhibition,[8],Active
same,Activity,[9],20%
same,MBC,Streptococcus mutans [10],6.25 µM
same,inhibition,Staphylococcus aureus [11],Active
same,Activity,[12],Non-Toxic
same,deltaG,Homo sapiens [13],-16.4 kcal/mol
same,Activity,Staphylococcus aureus [14],Active
same,Activity,[15],inactive
same,MBC,Staphylococcus aureus [16],3.13 µM
same,MBC,Escherichia coli [17],12.5 µM
same,MIC,Streptococcus pneumoniae [18],6.25 µM
same,Activity,Streptococcus pneumoniae [19],inactive
same,MIC,[20],3.13 µM
same,Activity,[21],inactive
same,deltaG,Homo sapiens [22],-16.4 kcal/mol
same,Activity,Staphylococcus aureus [23],Active
same,Kd,[24],0.001 nM
same,-TdeltaS,Homo sapiens [25],16.4 kcal/mol
same,deltaG,Homo sapiens [26],-16.4 kcal/mol
same,MBC,Staphylococcus aureus [27],3.13 µM
same,MIC,Staphylococcus aureus [28],3.13 µM
same,deltaH,[29],inactive
same,Activity,Staphylococcus aureus [30],Active
same,inhibition,Staphylococcus aureus [31],Active
same,Kd,[32],0.001 nM
same,inhibition,[33],inactive
same,Activity,[34],50%
same,Activity,Staphylococcus aureus [35],Active
same,MIC,[36],1.56 µM
same,MIC,Escherichia coli [37],3.13 µM
same,MBC,Streptococcus mutans [38],3.13 µM
same,CC50,RAW264.7,71100 nM
same,MBC,[39],3.13 µM

# From ChEMBL document CHEMBL5376002, “A Hybrid Antimicrobial Peptide Targeting Staphylococcus aureus with a Dual Function of Inhibiting Quorum Sensing Signaling and an Antibacterial Effect” (J Med Chem, 2023)
